Values of other authors as cited in article PMC6270305 (Molecules, 2013).
Where two headings read alike, the source gives them in different places.

[1] = human serum, peptide described in the preliminary communication

Compound: Cc1cc(C)c(C[C@@H]2NC(=O)[C@H](Cc3ccccc3)NC(=O)[C@H](CC(N)=O)NC(=O)[C@H](CCCCN)NC(=O)[C@@H](NC(=O)CNC(=O)[C@H](C)N)CSSC[C@@H](C(=O)O)NC(=O)[C@H](CO)NC(=O)[C@H]([C@@H](C)O)NC(=O)[C@H](Cc3ccccc3)NC(=O)[C@H]([C@@H](C)O)NC(=O)[C@H](CCCCN)NC(=O)[C@@H](Cc3c[nH]c4ccccc34)NC2=O)c(C)c1 [Peptide 5, [L-Msa7,D-Trp8]-SRIF]
- t1/2 (human serum half-life) (human, serum): 25 h

Compound: [L-Msa11,D-Trp8]-SRIF [Peptide 6]
- t1/2 (human serum half-life) [1]: 41 h

Compound: [L-Msa7]-SRIF [Peptide 2]
- t1/2 (human serum half-life) [1]: 5.2 h

Compound: [L-Msa6,D-Trp8]-SRIF [Peptide 4]
- t1/2 (human serum half-life) [1]: 26 h
